The target in the assay is TBK1 (Homo sapiens (Human), UniProt Q9UHD2). Put plainly: TBK1 low ATP kinase assay (in vitro assay 1). Type of assay: biochemical. The conditions noted are these: in vitro assay 1, read-out: TBK1 low ATP kinase assay IC50.
Sequence of TBK1 (Q9UHD2 whole entry): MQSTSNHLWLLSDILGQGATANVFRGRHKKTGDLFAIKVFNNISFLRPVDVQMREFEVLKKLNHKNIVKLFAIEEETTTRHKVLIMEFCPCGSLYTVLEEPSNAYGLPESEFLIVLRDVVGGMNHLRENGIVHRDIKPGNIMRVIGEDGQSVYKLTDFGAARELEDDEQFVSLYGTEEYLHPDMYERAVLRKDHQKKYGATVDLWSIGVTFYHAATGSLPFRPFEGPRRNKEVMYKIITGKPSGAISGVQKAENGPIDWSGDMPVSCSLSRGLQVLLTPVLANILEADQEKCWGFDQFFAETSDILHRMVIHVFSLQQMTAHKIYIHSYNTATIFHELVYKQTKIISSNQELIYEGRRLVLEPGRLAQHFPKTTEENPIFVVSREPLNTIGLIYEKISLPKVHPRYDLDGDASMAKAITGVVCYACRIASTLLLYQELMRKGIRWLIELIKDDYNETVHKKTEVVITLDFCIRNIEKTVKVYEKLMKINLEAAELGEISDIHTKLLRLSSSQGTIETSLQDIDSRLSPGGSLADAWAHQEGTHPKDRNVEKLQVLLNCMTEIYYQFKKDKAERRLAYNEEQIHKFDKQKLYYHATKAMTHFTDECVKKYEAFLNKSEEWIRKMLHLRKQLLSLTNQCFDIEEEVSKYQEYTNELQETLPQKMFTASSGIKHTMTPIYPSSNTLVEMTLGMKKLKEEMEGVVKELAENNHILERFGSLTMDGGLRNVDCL

In the case of `Cc1cc(-c2ccc3nc(Nc4cc(CN5CCN(C(=O)CC(F)(F)F)CC5)ccn4)[nH]c3c2)cc(C#N)n1` [Example 136.02, 6-methyl-4-{2-[(4-{[4-(3,3,3-trifluoropropanoyl)piperazin-1-yl]methyl}pyridin-2-yl)amino]-1H-benzimidazol-6-yl}pyridine-2-carbonitrile], the IC50 was found to be 38 nM. The same measure for `COc1cnc(C)cc1-c1ccc2nc(Nc3cc(CN4CCN(C(=O)C5CCC5)CC4)ccn3)[nH]c2c1` [Example 07.03, cyclobutyl{4-[(2-{[6-(5-methoxy-2-methylpyridin-4-yl)-1H-benzimidazol-2-yl]amino}pyridin-4-yl)methyl]piperazin-1-yl}methanone]: 384 nM.

As for `COc1cc(-c2ccc3nc(Nc4cc(C(C)N5CCN(C(=O)C6CC6)CC5)ccn4)[nH]c3c2)ncn1` (single isomer, unassigned) [Example 34.03.02.A, cyclopropyl{4-[(1R or 1S)-1-(2-{[6-(6-methoxypyrimidin-4-yl)-1H-benzimidazol-2-yl]amino}pyridin-4-yl)ethyl]piperazin-1-yl}methanone], the IC50 worked out at 46.4 nM. On to `O=C(CC(F)(F)F)N1CCN(Cc2ccnc(Nc3nc4ccc(-c5ccnc(N6CCOCC6)c5)cc4[nH]3)c2)CC1` [Example 134.02, 3,3,3-trifluoro-1-(4-{[2-({6-[2-(morpholin-4-yl)pyridin-4-yl]-1H-benzimidazol-2-yl}amino)pyridin-4-yl]methyl}piperazin-1-yl)propan-1-one], for which the IC50 worked out at 11 nM. Turning to `COc1cnc(Cl)nc1-c1ccc2nc(Nc3cc(CN4CCN(C(=O)OC(C)(C)C)CC4)ccn3)[nH]c2c1` [Example 63.01.01, tert-butyl 4-[(2-{[6-(2-chloro-5-methoxypyrimidin-4-yl)-1H-benzimidazol-2-yl]amino}pyridin-4-yl)methyl]piperazine-1-carboxylate], the IC50 stood at 36.4 nM. Turning to `N#Cc1cnccc1-c1ccc2nc(Nc3cc(CN4CCN(C(=O)C5CC5)CC4)ccn3)[nH]c2c1` [Example 103.01, 4-{2-[(4-{[4-(cyclopropylcarbonyl)piperazin-1-yl]methyl}pyridin-2-yl)amino]-1H-benzimidazol-6-yl}pyridine-3-carbonitrile], the IC50 is 360 nM.

For the compound `CCC(=O)N1CCN(Cc2ccnc(Nc3nc4ccc(-c5nc(C)no5)cc4[nH]3)c2)CC1` [Example 101.28, 1-{4-[(2-{[6-(3-methyl-1,2,4-oxadiazol-5-yl)-1H-benzimidazol-2-yl]amino}pyridin-4-yl)methyl]piperazin-1-yl}propan-1-one], the IC50 was 210 nM. Take `Cc1cc(CN2CCN(C(=O)CC(F)(F)F)CC2)cc(Nc2nc3ccc(-c4ccncn4)cc3[nH]2)n1` [Example 23.02.01, 3,3,3-trifluoro-1-{4-[(2-methyl-6-{[6-(pyrimidin-4-yl)-1H-benzimidazol-2-yl]amino}pyridin-4-yl)methyl]piperazin-1-yl}propan-1-one]: the IC50 is 20.4 nM.

As to `COc1cnc(C)cc1-c1ccc2nc(Nc3cc(CN4CCN(C(=O)CC(F)(F)F)CC4)ccn3)[nH]c2c1` [Example 07.02, 3,3,3-trifluoro-1-{4-[(2-{[6-(5-methoxy-2-methylpyridin-4-yl)-1H-benzimidazol-2-yl]amino}pyridin-4-yl)methyl]piperazin-1-yl}propan-1-one], the IC50 was found to be 277 nM. In the case of `CC(c1ccnc(Nc2nc3ccc(-c4cc(C(F)(F)F)nn4C)cc3[nH]2)c1)N1CCN(C(=O)C2CC2)CC1` (single isomer, unassigned) [Example 88.03, cyclopropyl(4-{(1R or 1S)-1-[2-({6-[1-methyl-3-(trifluoromethyl)-1H-pyrazol-5-yl]-1H-benzimidazol-2-yl}amino)pyridin-4-yl]ethyl}piperazin-1-yl)methanone], the IC50 is 990 nM. Under `CC(c1ccnc(Nc2nc3ccc(-c4cc(N5CCOCC5)ncn4)cc3[nH]2)c1)N1CCN(C(=O)OC(C)(C)C)CC1` (single isomer, unassigned) [Example 118.01, tert-butyl 4-{(1R or 1S)-1-[2-({6-[6-(morpholin-4-yl)pyrimidin-4-yl]-1H-benzimidazol-2-yl}amino)pyridin-4-yl]ethyl}piperazine-1-carboxylate] stands 7.9 nM; under `CC(c1ccnc(Nc2nc3ccc(-c4cc(N5CC(F)(F)C5)ncn4)cc3[nH]2)c1)N1CCN(C(=O)C2(C(F)(F)F)CC2)CC1` (single isomer, unassigned) [Example 116.04, (4-{(1R or 1S)-1-[2-({6-[6-(3,3-difluoroazetidin-1-yl)pyrimidin-4-yl]-1H-benzimidazol-2-yl}amino)pyridin-4-yl]ethyl}piperazin-1-yl)[1-(trifluoromethyl)cyclopropyl]methanone], 1 nM. The same measure for `O=C(C1CC1)N1CCN(Cc2ccnc(Nc3nc4ccc(-c5ccnc(N6CCOCC6)c5)cc4[nH]3)c2)CC1` [Example 134.03, cyclopropyl(4-{[2-({6-[2-(morpholin-4-yl)pyridin-4-yl]-1H-benzimidazol-2-yl}amino)pyridin-4-yl]methyl}piperazin-1-yl)methanone]: 19 nM; for `COc1nccc(-c2ccc3nc(Nc4cc(CN5CCN(C(=O)C6CC6)CC5)ccn4)[nH]c3c2)n1` [Example 25.01.05, cyclopropyl{4-[(2-{[6-(2-methoxypyrimidin-4-yl)-1H-benzimidazol-2-yl]amino}pyridin-4-yl)methyl]piperazin-1-yl}methanone]: 64.5 nM; for `CN(c1cc(-c2ccc3nc(Nc4cc(CN5CCN(C(=O)C6CC6)CC5)ccn4)[nH]c3c2)ncn1)C1CC1` [Example 157.03, cyclopropyl[4-({2-[(6-{6-[cyclopropyl(methyl)amino]pyrimidin-4-yl}-1H-benzimidazol-2-yl)amino]pyridin-4-yl}methyl)piperazin-1-yl]methanone]: 7.6 nM. For the compound `COc1cnccc1-c1ccc2nc(Nc3cc(CN4CCN(C(=O)C5(C(F)(F)F)CC5)CC4)ccn3)[nH]c2c1` [Example 04.07, {4-[(2-{[6-(3-methoxypyridin-4-yl)-1H-benzimidazol-2-yl]amino}pyridin-4-yl)methyl]piperazin-1-yl}[1-(trifluoromethyl)cyclopropyl]methanone], the IC50 was determined as 10 nM. With `COc1ccc(-c2ccc3nc(Nc4cc(CN5CCN(C(=O)C6CC6)CC5)ccn4)[nH]c3c2)nn1` [Example 47.01, cyclopropyl{4-[(2-{[6-(6-methoxypyridazin-3-yl)-1H-benzimidazol-2-yl]amino}pyridin-4-yl)methyl]piperazin-1-yl}methanone], the IC50 came to 394 nM. As for `CN(c1cc(-c2ccc3nc(Nc4cc(CN5CCN(C(=O)CC(F)(F)F)CC5)ccn4)[nH]c3c2)ncn1)C1CC1` [Example 157.02, 1-[4-({2-[(6-{6-[cyclopropyl(methyl)amino]pyrimidin-4-yl}-1H-benzimidazol-2-yl)amino]pyridin-4-yl}methyl)piperazin-1-yl]-3,3,3-trifluoropropan-1-one], the 50% inhibitory concentration (IC50) stood at 8.9 nM. Under `CCN(CC)c1cc(-c2ccc3nc(Nc4cc(CN5CCN(C(=O)OC(C)(C)C)CC5)ccn4)[nH]c3c2)ncn1` [Example 155.01, tert-butyl 4-{[2-({6-[6-(diethylamino)pyrimidin-4-yl]-1H-benzimidazol-2-yl}amino)pyridin-4-yl]methyl}piperazine-1-carboxylate] stands 36 nM.

By IC50 is commonly meant the concentration needed to halve the response being measured.

Values taken from patent US10894784B2, “Heteroarylbenzimidazole compounds” (BAYER PHARMA AKTIENGESELLSCHAFT, priority 2015, dated 2021).
